Experimental data: ChEMBL document CHEMBL1201862, “PubChem BioAssay data set” (2004)
The source made the active and inactive calls.

What was measured:
Format in all cases: functional
[1] = target: Tyrosine-protein kinase JAK3 (Homo sapiens, UniProt P52333)
[2] = target: BDNF/NT-3 growth factors receptor (Homo sapiens, UniProt Q16620);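 also: NTRK2 measured as one member of a broad kinome-wide kinase profiling panel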
[3] = target: LIM domain kinase 1 (Homo sapiens, UniProt P53667); test: Navigating the Kinome. Panel member name: LIMK1
[4] = target: G protein-coupled receptor kinase 5 (Homo sapiens, UniProt P34947); test: Navigating the Kinome. Panel member name: GPRK5
[5] = target: Glycogen synthase kinase-3 alpha (Homo sapiens, UniProt P49840);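 also: GSK3A result taken from a broad kinome-wide kinase panel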
[6] = target: Dual specificity protein kinase CLK2 (Homo sapiens, UniProt P49760)
[7] = target: Serine/threonine-protein kinase Chk1 (Homo sapiens, UniProt O14757);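 also: measured as one member of a kinome-wide kinase profiling panel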
[8] = target: Aurora kinase B (Homo sapiens, UniProt Q96GD4)
[9] = target: Dual specificity mitogen-activated protein kinase kinase 1 (Homo sapiens, UniProt Q02750); test: Navigating the Kinome. Panel member name: MAP2K1
[10] = target: Tyrosine-protein kinase ABL1 (Homo sapiens, UniProt P00519)
[11] = target: 5'-AMP-activated protein kinase catalytic subunit alpha-1 (Homo sapiens, UniProt Q13131)
[12] = target: Serine/threonine-protein kinase pim-1 (Homo sapiens, UniProt P11309)
[13] = target: Platelet-derived growth factor receptor alpha (Homo sapiens, UniProt P16234); test: Navigating the Kinome. Panel member name: PDGFRA
[14] = target: Serine/threonine-protein kinase TBK1 (Homo sapiens, UniProt Q9UHD2); test: Navigating the Kinome. Panel member name: TBK1
[15] = target: Activin receptor type-1 (Homo sapiens, UniProt Q04771); test: Navigating the Kinome. Panel member name: ACVR1
[16] = target: Inhibitor of nuclear factor kappa-B kinase subunit epsilon (Homo sapiens, UniProt Q14164); test: Navigating the Kinome. Panel member name: IKBKE
[17] = target: Tyrosine-protein kinase Fyn (Homo sapiens, UniProt P06241)
[18] = target: Activated CDC42 kinase 1 (Homo sapiens, UniProt Q07912); test: Navigating the Kinome. Panel member name: ACK1
[19] = target: Glycogen synthase kinase-3 beta (Homo sapiens, UniProt P49841);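 also: value comes from a broad kinome profiling panel, with GSK3B as the panel member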
[20] = target: Mitogen-activated protein kinase 8 (Homo sapiens, UniProt P45983);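 also: value comes from one member of a kinome-wide kinase profiling panel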
[21] = target: Tyrosine-protein kinase receptor TYRO3 (Homo sapiens, UniProt Q06418);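 also: TYRO3 value obtained as one member of a kinome-wide profiling panel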
[22] = target: Insulin-like growth factor 1 receptor (Homo sapiens, UniProt P08069); test: Navigating the Kinome. Panel member name: IGF1R
[23] = target: Protein kinase C theta type (Homo sapiens, UniProt Q04759); test: Navigating the Kinome. Panel member name: PRKCQ
[24] = target: Tyrosine-protein kinase JAK2 (Homo sapiens, UniProt O60674);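 also: JAK2 tested as one member of a kinase panel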
[25] = target: Focal adhesion kinase 1 (Homo sapiens, UniProt Q05397);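 also: measured as one member of a kinome panel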
[26] = target: Ribosomal protein S6 kinase alpha-3 (Homo sapiens, UniProt P51812);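 also: measured within a kinome-wide profiling panel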
[27] = target: Hepatocyte growth factor receptor (Homo sapiens, UniProt P08581);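 also: kinase panel profiling across the kinome, with MET as the panel member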
[28] = target: Tyrosine-protein kinase Lck (Homo sapiens, UniProt P06239);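 also: lck was assayed as one member of a kinase panel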

5'-AMP-activated protein kinase catalytic subunit alpha-1, sequence (Q13131 whole entry): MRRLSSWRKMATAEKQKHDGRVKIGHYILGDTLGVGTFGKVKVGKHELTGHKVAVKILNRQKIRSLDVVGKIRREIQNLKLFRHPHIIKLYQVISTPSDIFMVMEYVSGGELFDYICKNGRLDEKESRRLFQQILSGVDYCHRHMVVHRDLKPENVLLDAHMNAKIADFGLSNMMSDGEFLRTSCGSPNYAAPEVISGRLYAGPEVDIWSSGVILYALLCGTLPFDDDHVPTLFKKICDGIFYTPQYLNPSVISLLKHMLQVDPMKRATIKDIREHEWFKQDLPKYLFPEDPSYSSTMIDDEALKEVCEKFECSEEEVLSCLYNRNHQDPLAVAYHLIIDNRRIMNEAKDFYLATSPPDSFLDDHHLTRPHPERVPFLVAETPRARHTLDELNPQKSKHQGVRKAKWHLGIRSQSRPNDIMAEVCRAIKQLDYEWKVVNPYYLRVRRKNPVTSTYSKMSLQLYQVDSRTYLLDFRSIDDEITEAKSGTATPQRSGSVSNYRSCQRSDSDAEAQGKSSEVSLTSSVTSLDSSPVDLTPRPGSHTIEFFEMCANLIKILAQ
Dual specificity protein kinase CLK2, sequence (P49760 whole entry): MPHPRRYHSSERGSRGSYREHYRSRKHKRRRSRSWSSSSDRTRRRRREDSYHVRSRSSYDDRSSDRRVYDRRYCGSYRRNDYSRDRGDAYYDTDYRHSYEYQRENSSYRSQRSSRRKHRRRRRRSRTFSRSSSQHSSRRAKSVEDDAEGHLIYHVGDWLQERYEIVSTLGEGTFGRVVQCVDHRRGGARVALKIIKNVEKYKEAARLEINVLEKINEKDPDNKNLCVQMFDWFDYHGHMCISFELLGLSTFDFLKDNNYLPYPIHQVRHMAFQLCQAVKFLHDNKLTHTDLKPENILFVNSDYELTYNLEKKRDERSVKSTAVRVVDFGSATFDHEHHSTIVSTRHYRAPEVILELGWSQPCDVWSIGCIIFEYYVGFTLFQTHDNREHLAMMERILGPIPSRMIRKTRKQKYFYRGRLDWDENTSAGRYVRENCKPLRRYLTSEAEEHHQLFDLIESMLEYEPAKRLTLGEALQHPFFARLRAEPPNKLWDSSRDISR
Mitogen-activated protein kinase 8, sequence (P45983 whole entry): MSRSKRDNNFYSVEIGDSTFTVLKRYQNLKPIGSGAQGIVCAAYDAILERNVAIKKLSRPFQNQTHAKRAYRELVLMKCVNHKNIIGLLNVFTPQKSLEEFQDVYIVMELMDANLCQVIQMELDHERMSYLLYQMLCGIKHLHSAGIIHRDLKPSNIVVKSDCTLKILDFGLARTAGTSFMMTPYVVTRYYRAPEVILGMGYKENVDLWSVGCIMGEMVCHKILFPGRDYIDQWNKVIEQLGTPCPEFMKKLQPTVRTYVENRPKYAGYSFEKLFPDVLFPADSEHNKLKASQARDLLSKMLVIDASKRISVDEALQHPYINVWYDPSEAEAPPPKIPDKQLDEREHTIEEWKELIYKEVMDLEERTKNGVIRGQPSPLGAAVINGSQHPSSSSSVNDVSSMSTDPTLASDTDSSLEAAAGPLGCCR
Platelet-derived growth factor receptor alpha, sequence (P16234 whole entry): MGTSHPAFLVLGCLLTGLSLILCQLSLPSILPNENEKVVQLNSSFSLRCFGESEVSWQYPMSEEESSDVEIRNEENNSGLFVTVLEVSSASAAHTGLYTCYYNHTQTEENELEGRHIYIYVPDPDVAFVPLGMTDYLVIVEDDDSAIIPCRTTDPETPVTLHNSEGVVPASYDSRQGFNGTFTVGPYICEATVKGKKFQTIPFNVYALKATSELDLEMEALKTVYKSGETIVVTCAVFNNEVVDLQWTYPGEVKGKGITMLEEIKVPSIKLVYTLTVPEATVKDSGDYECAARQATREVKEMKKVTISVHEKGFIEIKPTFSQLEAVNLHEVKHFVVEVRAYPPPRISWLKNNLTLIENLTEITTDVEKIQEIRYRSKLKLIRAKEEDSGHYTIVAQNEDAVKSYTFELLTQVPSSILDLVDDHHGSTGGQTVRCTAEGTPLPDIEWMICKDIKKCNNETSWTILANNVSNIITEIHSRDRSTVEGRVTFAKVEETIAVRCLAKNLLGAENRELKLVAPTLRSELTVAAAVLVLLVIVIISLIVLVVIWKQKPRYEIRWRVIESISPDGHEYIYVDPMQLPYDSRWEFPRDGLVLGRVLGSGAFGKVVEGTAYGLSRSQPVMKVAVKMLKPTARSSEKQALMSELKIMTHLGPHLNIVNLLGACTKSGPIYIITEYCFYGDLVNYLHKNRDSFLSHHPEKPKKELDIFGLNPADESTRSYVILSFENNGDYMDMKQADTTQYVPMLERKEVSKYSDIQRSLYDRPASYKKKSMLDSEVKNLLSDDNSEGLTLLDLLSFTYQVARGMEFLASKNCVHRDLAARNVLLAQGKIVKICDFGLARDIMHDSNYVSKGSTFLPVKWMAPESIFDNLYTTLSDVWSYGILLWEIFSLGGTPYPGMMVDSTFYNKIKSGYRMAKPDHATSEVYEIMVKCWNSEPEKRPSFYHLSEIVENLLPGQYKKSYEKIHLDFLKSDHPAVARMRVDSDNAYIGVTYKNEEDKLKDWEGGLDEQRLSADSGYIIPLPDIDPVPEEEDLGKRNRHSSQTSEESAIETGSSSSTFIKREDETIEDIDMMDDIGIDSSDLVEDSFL
Tyrosine-protein kinase JAK3, sequence (P52333 whole entry): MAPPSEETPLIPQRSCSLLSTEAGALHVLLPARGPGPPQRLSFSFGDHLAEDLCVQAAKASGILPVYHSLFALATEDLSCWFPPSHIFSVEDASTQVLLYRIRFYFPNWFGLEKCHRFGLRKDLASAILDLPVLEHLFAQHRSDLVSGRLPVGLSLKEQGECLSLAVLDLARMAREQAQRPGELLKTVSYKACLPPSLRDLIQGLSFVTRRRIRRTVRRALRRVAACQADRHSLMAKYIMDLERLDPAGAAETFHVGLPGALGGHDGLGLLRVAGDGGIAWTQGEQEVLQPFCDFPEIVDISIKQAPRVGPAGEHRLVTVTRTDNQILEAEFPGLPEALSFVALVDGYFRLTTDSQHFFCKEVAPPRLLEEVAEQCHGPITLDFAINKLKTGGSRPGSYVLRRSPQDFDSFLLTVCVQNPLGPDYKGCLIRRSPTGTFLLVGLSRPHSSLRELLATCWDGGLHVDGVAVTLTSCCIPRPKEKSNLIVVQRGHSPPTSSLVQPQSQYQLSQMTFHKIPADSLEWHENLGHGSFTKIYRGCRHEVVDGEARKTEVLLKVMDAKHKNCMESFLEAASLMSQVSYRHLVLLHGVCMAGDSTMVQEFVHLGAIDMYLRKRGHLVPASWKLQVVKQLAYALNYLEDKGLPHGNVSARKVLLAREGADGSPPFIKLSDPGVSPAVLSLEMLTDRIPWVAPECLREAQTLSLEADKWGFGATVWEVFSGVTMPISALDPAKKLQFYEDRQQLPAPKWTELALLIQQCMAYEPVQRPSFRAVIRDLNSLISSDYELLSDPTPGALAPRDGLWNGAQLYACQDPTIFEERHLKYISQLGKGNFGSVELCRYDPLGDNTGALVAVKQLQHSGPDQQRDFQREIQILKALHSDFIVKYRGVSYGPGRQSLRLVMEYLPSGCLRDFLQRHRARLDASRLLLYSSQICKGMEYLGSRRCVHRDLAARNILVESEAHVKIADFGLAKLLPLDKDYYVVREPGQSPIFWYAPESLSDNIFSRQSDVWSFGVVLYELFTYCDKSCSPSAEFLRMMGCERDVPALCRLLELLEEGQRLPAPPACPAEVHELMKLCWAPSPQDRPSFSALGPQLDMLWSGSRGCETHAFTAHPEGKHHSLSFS
Serine/threonine-protein kinase TBK1, sequence (Q9UHD2 whole entry): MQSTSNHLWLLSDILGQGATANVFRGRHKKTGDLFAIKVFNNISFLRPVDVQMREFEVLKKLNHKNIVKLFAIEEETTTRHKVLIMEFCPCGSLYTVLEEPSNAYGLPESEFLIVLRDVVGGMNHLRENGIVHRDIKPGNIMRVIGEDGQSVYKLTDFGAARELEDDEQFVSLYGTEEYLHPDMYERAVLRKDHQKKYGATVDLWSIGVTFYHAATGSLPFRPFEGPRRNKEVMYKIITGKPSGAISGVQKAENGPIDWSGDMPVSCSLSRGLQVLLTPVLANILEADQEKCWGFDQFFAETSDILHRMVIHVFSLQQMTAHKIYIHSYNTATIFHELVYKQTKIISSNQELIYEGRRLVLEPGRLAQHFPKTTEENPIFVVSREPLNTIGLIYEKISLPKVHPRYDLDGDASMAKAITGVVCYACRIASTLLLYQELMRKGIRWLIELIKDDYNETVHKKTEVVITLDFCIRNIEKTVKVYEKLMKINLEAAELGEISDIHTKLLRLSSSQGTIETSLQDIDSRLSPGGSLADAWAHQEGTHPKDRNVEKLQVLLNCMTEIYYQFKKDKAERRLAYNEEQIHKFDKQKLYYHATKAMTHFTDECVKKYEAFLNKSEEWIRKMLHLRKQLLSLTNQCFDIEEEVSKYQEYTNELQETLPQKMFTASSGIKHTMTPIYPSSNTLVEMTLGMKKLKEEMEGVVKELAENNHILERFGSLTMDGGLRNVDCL
Dual specificity mitogen-activated protein kinase kinase 1, sequence (Q02750 whole entry): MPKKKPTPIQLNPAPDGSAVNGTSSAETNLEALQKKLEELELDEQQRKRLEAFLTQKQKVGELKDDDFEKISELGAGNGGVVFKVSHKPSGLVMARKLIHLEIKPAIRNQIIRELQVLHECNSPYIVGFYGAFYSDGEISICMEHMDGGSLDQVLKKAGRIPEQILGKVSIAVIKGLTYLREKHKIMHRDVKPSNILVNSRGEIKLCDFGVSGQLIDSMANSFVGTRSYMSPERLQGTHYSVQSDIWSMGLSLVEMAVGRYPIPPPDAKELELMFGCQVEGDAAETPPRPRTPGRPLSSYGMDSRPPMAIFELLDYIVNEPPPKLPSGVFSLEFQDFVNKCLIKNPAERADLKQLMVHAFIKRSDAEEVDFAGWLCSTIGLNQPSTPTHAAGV

SMILES	Ki [1]	Ki [2]	Ki [4]	Ki [5]	Ki [6]	Ki [9]	Ki [11]	Ki [12]	Ki [13]	Ki [14]	Ki [16]	Ki [17]	Ki [18]	Ki [19]	Ki [20]	Ki [21]	Ki [22]	Ki [23]	Ki [24]	further results
COc1cccc(C(C)NC(=O)c2cnc(-c3ccncc3)nc2)c1 (configuration not stated)	> 5.01 µM (inactive)	> 3.98 µM (inactive)	> 3.98 µM (inactive)	2.51 µM (active)	> 3.98 µM (inactive)	> 3.16 µM (inactive)	> 3.16 µM (inactive)	> 6.31 µM (inactive)	> 2.51 µM (inactive)	> 3.16 µM (inactive)	> 3.16 µM (inactive)	> 6.31 µM (inactive)	> 3.98 µM (inactive)	1.58 µM (active)	> 5.01 µM (inactive)	> 3.16 µM (inactive)	> 2.51 µM (inactive)	0.631 µM (active)	> 2.51 µM (inactive)	Ki [3]: > 3.16 µM (inactive); Ki [7]: > 3.16 µM (inactive); Ki [8]: > 3.98 µM (inactive); Ki [10]: > 3.98 µM (inactive); Ki [15]: > 3.98 µM (inactive)
CCCOc1cccc(C(C)NC(=O)c2ccc(-c3ccncc3F)cc2)c1 (configuration not stated)	> 5.01 µM (inactive)	> 3.98 µM (inactive)	> 3.98 µM (inactive)	3.16 µM (active)	> 3.98 µM (inactive)	> 3.16 µM (inactive)	> 3.16 µM (inactive)	> 6.31 µM (inactive)	> 2.51 µM (inactive)	> 3.16 µM (inactive)	> 3.16 µM (inactive)	> 6.31 µM (inactive)	> 3.98 µM (inactive)	2.51 µM (active)	> 5.01 µM (inactive)	> 3.16 µM (inactive)	> 2.51 µM (inactive)	2 µM (active)	> 2.51 µM (inactive)	Ki [25]: > 6.31 µM (inactive); Ki [26]: > 3.98 µM (inactive); Ki [27]: > 2.51 µM (inactive); Ki [28]: > 6.31 µM (inactive)
